{"source": "patent US20220226508A1", "about": "“METHODS AND COMPOSITIONS FOR TREATING EPILEPSY” (THE REGENTS OF THE UNIVERSITY OF CALIFORNIA, priority 2019, published 2022)", "key": {"5-HT1B": {"biological_target": "5-HT1B (Homo sapiens, UniProt P28222)", "sequence (P28222 whole entry, species assumed)": "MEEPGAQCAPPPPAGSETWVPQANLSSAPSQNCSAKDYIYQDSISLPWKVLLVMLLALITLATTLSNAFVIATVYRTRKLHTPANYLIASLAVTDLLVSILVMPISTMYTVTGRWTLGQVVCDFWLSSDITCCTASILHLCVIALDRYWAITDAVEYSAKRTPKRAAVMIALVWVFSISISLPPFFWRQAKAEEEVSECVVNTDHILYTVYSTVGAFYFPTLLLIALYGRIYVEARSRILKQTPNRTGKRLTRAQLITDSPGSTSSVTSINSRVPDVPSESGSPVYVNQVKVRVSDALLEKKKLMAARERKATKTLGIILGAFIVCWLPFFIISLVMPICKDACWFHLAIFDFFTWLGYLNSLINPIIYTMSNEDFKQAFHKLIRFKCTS", "conditions": "read-out: binding affinity (Ki) 5-HT1B; cited from earlier work"}, "5-HT7": {"biological_target": "5-HT7 (Homo sapiens, UniProt P34969)", "sequence (P34969 whole entry, species assumed)": "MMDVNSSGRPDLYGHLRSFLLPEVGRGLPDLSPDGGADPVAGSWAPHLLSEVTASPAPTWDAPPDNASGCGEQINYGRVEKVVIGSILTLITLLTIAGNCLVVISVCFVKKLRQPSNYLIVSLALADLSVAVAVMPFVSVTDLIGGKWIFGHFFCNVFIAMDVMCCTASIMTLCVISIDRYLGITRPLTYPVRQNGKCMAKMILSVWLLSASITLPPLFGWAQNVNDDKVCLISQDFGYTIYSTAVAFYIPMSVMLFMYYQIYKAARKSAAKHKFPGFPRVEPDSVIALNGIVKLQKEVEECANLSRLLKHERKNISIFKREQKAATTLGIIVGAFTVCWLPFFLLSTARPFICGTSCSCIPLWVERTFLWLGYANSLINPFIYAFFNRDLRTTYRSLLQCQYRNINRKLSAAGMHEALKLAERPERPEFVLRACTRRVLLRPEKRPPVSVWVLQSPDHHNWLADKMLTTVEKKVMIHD", "conditions": "read-out: binding affinity (Ki) 5-HT7; cited from earlier work"}, "Adrenergic Alpha1B": {"biological_target": "T1, Adrenergic Alpha1B (Homo sapiens, UniProt P35368)", "T1 sequence (P35368 1-520)": "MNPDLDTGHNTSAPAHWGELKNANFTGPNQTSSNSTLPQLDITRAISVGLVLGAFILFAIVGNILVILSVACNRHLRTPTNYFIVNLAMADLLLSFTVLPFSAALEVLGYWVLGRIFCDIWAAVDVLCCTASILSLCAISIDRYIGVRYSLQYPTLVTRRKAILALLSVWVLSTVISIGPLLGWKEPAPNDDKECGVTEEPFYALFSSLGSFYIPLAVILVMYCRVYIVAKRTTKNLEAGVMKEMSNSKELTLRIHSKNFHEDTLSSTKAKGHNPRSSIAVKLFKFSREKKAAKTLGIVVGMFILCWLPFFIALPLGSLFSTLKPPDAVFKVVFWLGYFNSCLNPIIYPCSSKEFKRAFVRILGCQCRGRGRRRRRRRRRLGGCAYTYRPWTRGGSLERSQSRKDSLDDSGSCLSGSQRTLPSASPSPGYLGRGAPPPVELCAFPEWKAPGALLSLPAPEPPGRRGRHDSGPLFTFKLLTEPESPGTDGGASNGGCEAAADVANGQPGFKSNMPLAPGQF", "conditions": "read-out: binding affinity (Ki) Adrenergic Alpha1B; cited from earlier work"}, "5-HT6": {"biological_target": "5-HT6 (Homo sapiens, UniProt P50406)", "sequence (P50406 whole entry, species assumed)": "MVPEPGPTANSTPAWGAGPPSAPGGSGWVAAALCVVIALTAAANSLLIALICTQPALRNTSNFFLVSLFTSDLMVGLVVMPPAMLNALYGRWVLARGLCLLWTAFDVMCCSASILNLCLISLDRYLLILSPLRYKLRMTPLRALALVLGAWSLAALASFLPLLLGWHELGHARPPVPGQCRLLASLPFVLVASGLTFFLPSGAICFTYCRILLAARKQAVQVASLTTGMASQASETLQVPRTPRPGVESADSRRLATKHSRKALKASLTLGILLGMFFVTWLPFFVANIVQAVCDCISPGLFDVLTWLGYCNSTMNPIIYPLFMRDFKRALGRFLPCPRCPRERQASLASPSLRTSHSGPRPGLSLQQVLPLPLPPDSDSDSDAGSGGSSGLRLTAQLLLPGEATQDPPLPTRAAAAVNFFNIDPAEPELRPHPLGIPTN", "conditions": "read-out: binding affinity (Ki) 5-HT6; cited from earlier work"}, "5-HT1D": {"biological_target": "5-HT1D (Homo sapiens, UniProt P28221)", "sequence (P28221 whole entry, species assumed)": "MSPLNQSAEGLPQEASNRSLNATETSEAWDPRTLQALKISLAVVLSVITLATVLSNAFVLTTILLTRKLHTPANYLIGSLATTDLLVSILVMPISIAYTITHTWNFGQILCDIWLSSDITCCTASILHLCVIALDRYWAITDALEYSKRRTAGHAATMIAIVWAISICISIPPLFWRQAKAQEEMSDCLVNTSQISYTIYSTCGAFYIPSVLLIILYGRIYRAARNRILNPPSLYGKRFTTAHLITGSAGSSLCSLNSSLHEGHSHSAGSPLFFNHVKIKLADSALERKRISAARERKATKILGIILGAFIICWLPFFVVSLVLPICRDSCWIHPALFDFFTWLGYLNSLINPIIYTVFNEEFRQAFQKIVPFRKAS", "conditions": "read-out: binding affinity (Ki) 5-HT1D; cited from earlier work"}, "[1]": {"biological_target": "Norepinephrine Transporter (Homo sapiens, UniProt P23975)", "sequence (P23975 whole entry)": "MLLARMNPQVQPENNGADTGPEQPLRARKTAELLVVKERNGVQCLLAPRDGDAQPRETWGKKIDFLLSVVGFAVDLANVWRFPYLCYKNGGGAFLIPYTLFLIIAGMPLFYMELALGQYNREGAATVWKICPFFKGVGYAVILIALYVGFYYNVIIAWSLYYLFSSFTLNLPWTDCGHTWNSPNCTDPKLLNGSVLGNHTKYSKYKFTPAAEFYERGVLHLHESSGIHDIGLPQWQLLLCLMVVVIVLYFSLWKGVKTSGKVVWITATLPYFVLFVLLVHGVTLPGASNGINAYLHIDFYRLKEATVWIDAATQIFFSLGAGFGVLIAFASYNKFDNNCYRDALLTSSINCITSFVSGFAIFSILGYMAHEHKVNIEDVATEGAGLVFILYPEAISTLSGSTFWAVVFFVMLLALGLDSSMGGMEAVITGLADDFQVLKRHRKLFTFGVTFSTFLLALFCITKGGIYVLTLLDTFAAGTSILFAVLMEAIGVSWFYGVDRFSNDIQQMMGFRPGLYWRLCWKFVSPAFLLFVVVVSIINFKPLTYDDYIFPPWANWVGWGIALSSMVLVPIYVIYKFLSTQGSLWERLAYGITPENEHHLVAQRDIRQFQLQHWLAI", "conditions": "read-out: binding affinity (Ki) Norepinephrine Transporter; cited from earlier work"}, "5-HT5": {"biological_target": "5-HT5 (Homo sapiens, UniProt P47898)", "conditions": "read-out: binding affinity (Ki) 5-HT5; cited from earlier work"}, "5-HT1A": {"biological_target": "T2, 5-HT1A (Homo sapiens, UniProt P08908)", "T2 sequence (P08908 1-422)": "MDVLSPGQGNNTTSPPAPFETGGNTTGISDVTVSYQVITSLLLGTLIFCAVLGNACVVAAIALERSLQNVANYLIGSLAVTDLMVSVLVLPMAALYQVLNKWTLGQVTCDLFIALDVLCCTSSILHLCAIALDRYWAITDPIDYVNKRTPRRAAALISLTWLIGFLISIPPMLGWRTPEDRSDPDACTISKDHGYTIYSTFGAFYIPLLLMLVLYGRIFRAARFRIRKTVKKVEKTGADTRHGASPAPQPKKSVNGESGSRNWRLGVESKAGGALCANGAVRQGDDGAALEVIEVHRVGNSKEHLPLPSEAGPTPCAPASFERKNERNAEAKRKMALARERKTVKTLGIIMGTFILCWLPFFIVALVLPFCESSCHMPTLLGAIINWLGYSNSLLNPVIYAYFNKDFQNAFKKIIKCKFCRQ", "conditions": "read-out: binding affinity (Ki) 5-HT1A; cited from earlier work"}, "5-HT Transporter": {"biological_target": "5-HT Transporter (Homo sapiens, UniProt P31645)", "sequence (P31645 whole entry, species assumed)": "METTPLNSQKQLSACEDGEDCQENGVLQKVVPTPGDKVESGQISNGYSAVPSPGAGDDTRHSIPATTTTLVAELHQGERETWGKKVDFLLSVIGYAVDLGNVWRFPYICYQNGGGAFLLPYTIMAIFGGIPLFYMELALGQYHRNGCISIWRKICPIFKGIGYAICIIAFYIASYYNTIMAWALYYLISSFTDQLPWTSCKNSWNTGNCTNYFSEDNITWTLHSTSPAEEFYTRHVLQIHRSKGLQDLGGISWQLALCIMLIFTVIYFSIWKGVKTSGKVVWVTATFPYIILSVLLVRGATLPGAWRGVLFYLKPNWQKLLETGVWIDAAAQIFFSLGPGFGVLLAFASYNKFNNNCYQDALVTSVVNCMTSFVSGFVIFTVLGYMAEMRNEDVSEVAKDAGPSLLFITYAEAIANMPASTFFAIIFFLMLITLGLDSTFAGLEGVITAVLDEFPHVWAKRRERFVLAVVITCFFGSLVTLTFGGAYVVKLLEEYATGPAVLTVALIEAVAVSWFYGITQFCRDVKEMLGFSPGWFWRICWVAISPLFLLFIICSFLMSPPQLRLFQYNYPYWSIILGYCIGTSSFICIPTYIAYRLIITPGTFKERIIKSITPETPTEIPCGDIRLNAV", "conditions": "read-out: binding affinity (Ki) 5-HT Transporter; cited from earlier work"}, "scn1lab mutant zebrafish [2]": {"system": "scn1lab mutant zebrafish", "test": "Local field potential (LFP) electrophysiology of electrographic seizure events", "type": "in vivo, zebrafish (Danio rerio)", "method": "For electrophysiology studies, zebrafish larvae were anesthetized with cold and immobilized in 1.2% agarose; local field potential (LFP) recordings were obtained from forebrain or optic tectum structures using a single-electrode approach, as previously described (Baraban, S. C. et al., Neuroscience, 131, 759-768, 2005). Agarose-embedded LFP recording sessions of 10 min were obtained at 1 kHz. Epileptiform events were identified post hoc and defined as multi-spike or poly-spike upward or downward membrane deflections greater than 3× baseline noise level and 150-250 ms in duration (interictal-like) or greater than 5× baseline noise, multi-spike and >500 ms in duration (ictal-like); both events were counted using threshold detection settings in Clampfit (Molecular Devices; Sunnyvale, Calif.). During electrophysiology experiments larvae were continuously monitored for blood flow and heart rate using an Axiocam digital camera at video frame rate.\nMonitoring electrographic brain activity to confirm seizure suppression is an essential assay to eliminate false positives from behavioral testing (Griffin, A. et al., Frontiers in Pharmacology, 9, 2018). By placing a microelectrode into a visually identified brain region of an agar-immobilized zebrafish larval, stable local field potential (LFP) recordings can be monitored for several hours (Baraban, S. C. et al., Nat Commun, 4, 2410, 2013). At 5 dpf LFP recordings of scn1Lab zebrafish larvae show an average of 250 abnormal electrographic seizure events during a 10 min recording epoch."}, "scn1lab mutant zebrafish [3]": {"system": "scn1lab mutant zebrafish", "test": "Locomotion assay of high-velocity seizure-like swim behavior", "type": "in vivo, zebrafish (Danio rerio)", "description": "Zebrafish maintenance. Zebrafish were raised under standard laboratory conditions in accordance with requirements outlined in the Guide for the Care and Use of Animals (ebrary Inc., 2011) and experiments were approved by the Institutional Animal Care and Use Committee (protocol #AN108659-03). Embryos were obtained by natural spawning of scn1lab (didy^s552) heterozygous animals that had been outcrossed to TL strain. Homozygous scn1lab mutants (n=2500) have dispersed melanosomes and appear visibly darker by 3 dpf compared to WT larvae.\nSeizure monitoring. At 5 dpf individual zebrafish larvae were placed into a single well of a clear flat-bottomed 96-well microplate containing embryo media. Larvae were selected randomly as sex determination is not possible at this stage of development. All drug screening experiments were conducted in an unbiased manner by investigators blinded to the test compounds and all files coded for post hoc analysis. Microplates were placed inside the DanioVision and acclimated for 20 min at room temperature. Locomotion plots were obtained for each well at a recording epoch of 10 min using EthoVision XT software (DanioVision, Noldus Information Technology). Seizure scoring was performed using the following three-stage scale established for pentylenetetrazole-induced seizures: Stage 0, no or very little swim activity; Stage I, increased, brief bouts of swim activity; Stage II, rapid “whirlpool-like” circling swim behavior; and Stage III, paroxysmal whole-body clonus-like convulsions, and a brief loss of posture. WT fish are typically scored at Stage 0 or I. Plots were analyzed for distance travelled (in millimeters) and mean velocity (in millimeters per second). After 90 mins of drug exposure larvae were examined for toxic side-effects. Compounds that decreased or stopped the larva heartbeat, or reduced or eliminated the escape response when touched, were considered toxic.\nStatistics. Data are presented as the mean±standard error of the mean (SEM), unless otherwise stated. For behavior analysis, the threshold for a change in mean swim velocity ≥40% (>1.5×SD of 250 control treated scn1lab) is considered significant. For comparison between more than two groups one-way ANOVA analysis was used. […] Differences considered statistically significant are indicated with asterisks (*P<0.05; **P<0.01)."}, "human 5-HT2AR": {"biological_target": "T3, human 5-HT2AR (Homo sapiens, UniProt P28223)", "T3 construct": "expressed in transfected cells", "T3 sequence (P28223 whole entry)": "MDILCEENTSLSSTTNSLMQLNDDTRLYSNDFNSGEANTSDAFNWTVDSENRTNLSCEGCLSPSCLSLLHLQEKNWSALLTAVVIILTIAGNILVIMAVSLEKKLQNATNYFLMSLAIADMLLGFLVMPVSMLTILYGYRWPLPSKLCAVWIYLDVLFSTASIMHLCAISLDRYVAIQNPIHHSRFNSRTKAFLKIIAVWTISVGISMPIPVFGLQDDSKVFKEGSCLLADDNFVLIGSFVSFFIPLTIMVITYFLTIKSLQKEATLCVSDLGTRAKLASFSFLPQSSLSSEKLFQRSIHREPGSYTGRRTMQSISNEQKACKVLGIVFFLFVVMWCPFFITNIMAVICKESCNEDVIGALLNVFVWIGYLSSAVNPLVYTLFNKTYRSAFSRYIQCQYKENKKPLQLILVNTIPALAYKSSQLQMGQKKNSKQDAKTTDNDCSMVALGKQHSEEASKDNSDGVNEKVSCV", "conditions": "read-out: binding affinity (Ki) 5-HT2A / 5-HT2AR, cited from earlier work"}, "human 5-HT2BR": {"biological_target": "T4, human 5-HT2BR (Homo sapiens, UniProt P41595)", "T4 construct": "expressed in transfected cells", "T4 sequence (P41595 whole entry)": "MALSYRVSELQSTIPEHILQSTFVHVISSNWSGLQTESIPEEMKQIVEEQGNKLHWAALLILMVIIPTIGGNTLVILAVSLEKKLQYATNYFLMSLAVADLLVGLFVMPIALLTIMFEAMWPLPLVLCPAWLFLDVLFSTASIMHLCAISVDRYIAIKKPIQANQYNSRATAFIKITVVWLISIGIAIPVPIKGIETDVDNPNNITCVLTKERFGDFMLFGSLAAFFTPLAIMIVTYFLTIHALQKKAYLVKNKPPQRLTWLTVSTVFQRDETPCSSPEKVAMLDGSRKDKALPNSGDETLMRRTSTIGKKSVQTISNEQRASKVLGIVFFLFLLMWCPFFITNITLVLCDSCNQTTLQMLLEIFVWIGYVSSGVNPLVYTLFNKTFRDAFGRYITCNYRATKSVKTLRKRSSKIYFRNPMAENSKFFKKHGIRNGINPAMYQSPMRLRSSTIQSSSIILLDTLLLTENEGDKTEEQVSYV", "conditions": "known drugs and commercial compounds; read-out: binding affinity (Ki) 5-HT2B / 5-HT2BR; cited from earlier work"}, "human H1 receptor": {"biological_target": "human H1 receptor (Homo sapiens, UniProt P35367)", "sequence (P35367 whole entry)": "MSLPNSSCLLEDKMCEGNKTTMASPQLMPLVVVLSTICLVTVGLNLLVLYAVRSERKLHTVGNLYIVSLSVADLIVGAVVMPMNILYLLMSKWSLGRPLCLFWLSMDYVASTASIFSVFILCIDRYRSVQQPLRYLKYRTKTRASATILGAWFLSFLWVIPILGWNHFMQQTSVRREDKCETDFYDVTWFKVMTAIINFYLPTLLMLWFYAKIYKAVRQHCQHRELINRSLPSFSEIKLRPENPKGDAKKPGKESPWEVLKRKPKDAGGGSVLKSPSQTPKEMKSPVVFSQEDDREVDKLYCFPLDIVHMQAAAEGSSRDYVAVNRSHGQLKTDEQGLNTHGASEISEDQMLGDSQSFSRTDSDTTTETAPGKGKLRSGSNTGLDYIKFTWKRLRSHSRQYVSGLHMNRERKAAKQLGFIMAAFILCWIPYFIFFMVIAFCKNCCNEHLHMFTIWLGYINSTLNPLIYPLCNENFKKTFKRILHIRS", "conditions": "read-out: binding affinity (Ki) Histamine H1; cited from earlier work"}, "human 5-HT2CR": {"biological_target": "T5, human 5-HT2CR (Homo sapiens, UniProt P28335)", "T5 construct": "expressed in transfected cells", "T5 sequence (P28335 33-458)": "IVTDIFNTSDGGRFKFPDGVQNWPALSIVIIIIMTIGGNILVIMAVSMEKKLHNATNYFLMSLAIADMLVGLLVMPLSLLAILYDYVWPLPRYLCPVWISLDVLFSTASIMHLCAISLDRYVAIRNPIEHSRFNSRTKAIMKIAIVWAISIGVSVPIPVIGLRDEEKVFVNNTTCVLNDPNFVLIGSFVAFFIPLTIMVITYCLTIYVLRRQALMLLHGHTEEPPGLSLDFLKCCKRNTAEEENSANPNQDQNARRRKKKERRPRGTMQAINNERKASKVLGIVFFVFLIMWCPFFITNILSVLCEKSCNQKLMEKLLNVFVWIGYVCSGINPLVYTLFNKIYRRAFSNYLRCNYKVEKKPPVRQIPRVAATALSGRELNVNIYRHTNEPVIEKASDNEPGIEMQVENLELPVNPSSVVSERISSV", "conditions": "known drugs and commercial compounds; read-out: binding affinity (Ki) 5-HT2C / 5-HT2CR; cited from earlier work"}, "Histamine H3": {"biological_target": "Histamine H3 (Homo sapiens, UniProt Q9Y5N1)", "sequence (Q9Y5N1 whole entry)": "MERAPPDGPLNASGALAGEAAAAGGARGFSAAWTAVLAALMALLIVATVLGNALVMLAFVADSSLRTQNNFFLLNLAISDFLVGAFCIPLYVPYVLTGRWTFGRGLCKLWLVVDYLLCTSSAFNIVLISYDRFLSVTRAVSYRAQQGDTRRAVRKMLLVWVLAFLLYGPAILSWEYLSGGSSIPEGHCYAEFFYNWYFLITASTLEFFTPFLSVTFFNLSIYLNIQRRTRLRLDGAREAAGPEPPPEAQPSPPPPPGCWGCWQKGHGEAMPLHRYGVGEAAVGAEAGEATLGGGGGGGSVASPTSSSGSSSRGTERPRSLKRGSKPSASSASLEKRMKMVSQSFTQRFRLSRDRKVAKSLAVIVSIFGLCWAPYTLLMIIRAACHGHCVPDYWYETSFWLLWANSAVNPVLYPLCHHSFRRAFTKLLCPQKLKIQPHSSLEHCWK", "conditions": "read-out: binding affinity (Ki) Histamine H3; cited from earlier work"}}, "note": "“Also recorded” adds a separate entry of the source. Read-outs that look alike come from different tables or passages of the source."}
{"smiles": "CCNC(C)Cc1cccc(C(F)(F)F)c1", "note": "(centres unmarked) [FEN]", "values": [{"measurement": "Ki", "setting": "5-HT1B", "value": 1840, "unit": "nM"}, {"measurement": "Ki", "setting": "5-HT7", "value": 7310, "unit": "nM"}, {"measurement": "Ki", "setting": "Adrenergic Alpha1B", "value": 142, "unit": "nM"}, {"measurement": "Ki", "setting": "5-HT6", "value": 9.08, "unit": "µM"}, {"measurement": "Ki", "setting": "5-HT1D", "value": 1260, "unit": "nM"}]}
{"smiles": "C[C@H]1CNCCc2ccc(Cl)cc21", "note": "[LOR]", "values": [{"measurement": "Ki", "setting": "5-HT7", "value": 636, "unit": "nM"}, {"measurement": "Ki", "setting": "[1]", "value": 1400, "unit": "nM"}, {"measurement": "Ki", "setting": "5-HT5", "value": 3.71, "unit": "µM"}, {"measurement": "Ki", "setting": "5-HT1A", "value": 700, "unit": "nM"}, {"measurement": "Ki", "setting": "5-HT6", "value": 1.98, "unit": "µM"}]}
{"smiles": "CC(N)Cc1ccc2ccoc2c1", "note": "(centres unmarked) [Compound 6-APB, 6-APB]", "values": [{"measurement": "Ki", "setting": "5-HT Transporter", "value": 2700, "unit": "nM"}, {"measurement": "frequency of electrographic seizure (epileptiform) events", "setting": "scn1lab mutant zebrafish [2]; 250 μM, 10 min LFP recording, 5 dpf larvae", "value": "significant changes in the frequency of events; also recorded: significantly suppressed the frequency of electrographic seizure events"}, {"measurement": "effect on seizure-like swim behavior (change in mean velocity)", "setting": "scn1lab mutant zebrafish [3]; commercial 5-HT2BR/dopamine agonists, three concentrations, 30 and 90 min exposure, threshold ≥40%", "value": "suppressed convulsive swim behaviors in a concentration-dependent manner"}, {"measurement": "Ki", "setting": "5-HT7", "value": 155, "unit": "nM"}, {"measurement": "Ki", "setting": "5-HT1A", "value": 1280, "unit": "nM"}, {"measurement": "Ki", "setting": "human 5-HT2AR; known drugs and commercial compounds", "value": 1930, "unit": "nM"}]}
{"smiles": "Clc1ccc(Cn2c(CN3CCCC3)nc3ccccc32)cc1", "note": "[clemizole]", "values": [{"measurement": "Ki", "setting": "human 5-HT2BR", "value": 25, "unit": "nM"}, {"measurement": "inhibition of electrographic seizures", "setting": "scn1lab mutant zebrafish [2]; phenotype-based screen", "value": "effective inhibitor"}, {"measurement": "Ki", "setting": "human H1 receptor", "value": 1.3, "unit": "nM"}, {"measurement": "inhibition of spontaneous convulsive behaviors", "setting": "scn1lab mutant zebrafish [3]; phenotype-based screen", "value": "effective inhibitor"}, {"measurement": "Ki", "setting": "human 5-HT2CR", "value": 197, "unit": "nM"}, {"measurement": "Ki", "setting": "Histamine H3", "value": 402, "unit": "nM"}, {"measurement": "Ki", "setting": "human 5-HT2AR", "value": 239, "unit": "nM"}]}
